Measurements: patent US20200163984A1, “USE OF ISOVALERYL SPIRAMYCIN I, II AND/OR III IN MANUFACTURING MEDICAMENT FOR TREATING AND/OR PREVENTING TUMOR, AND MEDICAMENT” (SHENYANG FUYANG PHARMACEUTICAL TECHNOLOGY CO., LTD., priority 2017, published 2020)
≈ marks a conversion by molar mass, not a printed value. Like-named read-outs stand apart in the source and are kept apart here.

Experiments:
[1] = tested on: human bladder cancer cell T-24; conditions: T-24, MTT
Text: (§1) The purpose of the assay is to evaluate the in vitro cell proliferation inhibition or cytotoxic activity of a tested sample.
(§2) Human breast cancer cells MCF-7 and MDA-MB-231, human hepatoma cells HepG2, human non-small cell lung cancer cells A549, human large cell lung cancer cells H460 and H1299, human renal clear cell adenocarcinoma cell 786-0, human renal cell adenocarcinoma cell 769-P, human glioma cell U251, human glioblastoma cell A172, human tissue lymphoma cell U937, human cervical cancer cell HeLa, human prostate cancer cell PC3, human pancreatic cancer cell PANC-1, human esophageal cancer cell TE-1, human gastric adenocarcinoma cell SGC7901, human colon cancer cell HT-29, human promyelocytic leukemia cell HL-60, human thyroid cancer cell TPC-1, and human bladder cancer cell T-24.
(§3) The inhibition rate of the medicament on tumor cell growth is calculated according to the following formula:
(§4) Tumor cell growth inhibition rate (%)=[A492 (negative control)−A492 (dosing group)]/A492 (negative control)×100%
(§5) And the half-inhibitory concentration (IC50) of the sample is determined therefrom.

[2] = tested on: human thyroid cancer cell TPC-1; conditions: TPC-1, MTT
Text: as §1, §2, §3, §4, §5

[3] = tested on: transplanted tumor of human prostate cancer cell PC3; experiment: PC3 transplanted tumor in nude mice
Procedure: (§6) Then cell concentration was adjusted to 1×10^7/ml with matrigel, then each nude mouse was inoculated subcutaneously with 0.2 ml of cells at its right armpit and recorded as the first day of inoculation. When the tumor grows to be greater than or equal to 100 mm^3, the mice were randomly divided into 11 groups with 6 mice in each group: a model group, a cyclophosphamide group, isovaleryl spiramycin I groups with doses of 25, 50 and 100 mg/kg, isovaleryl spiramycin II groups with doses of 25, 50 and 100 mg/kg, and isovaleryl spiramycin III groups with doses of 25, 50 and 100 mg/kg. Each group was continuously administered intragastrically for 30 days with a dose of 20 ml/kg. The mice were sacrificed the next day after drug withdrawal and the indicators were tested. The long diameter and short diameter of the tumor, and the body weight of each mouse were recorded every 3 days from drug administration to nude mouse sacrifice.
(§7) The body weight of the nude mice and the long diameter (a) and short diameter (b) of the transplanted tumor were measured every 3 days, and the tumor volume (v), relative tumor volume (RTV) and relative tumor proliferation rate (T/C) are calculated respectively according to the following formulas, wherein V=a×b^2/2; RTV=V/V0 (V0 is the tumor volume before administration, V is the tumor volume before sacrifice), and T/C (%)=treatment group RTV/model control group RTV×100%.
(§8) Each mouse was weighed and sacrificed. After the tumor was completely stripped off from the body of the mouse, the non-tumor tissues such as blood stains and fat were removed to weigh the tumor and calculate the tumor growth inhibition rate. The average tumor weight of each group of mice is used as an indicator of efficacy. Tumor growth inhibition rate (%)=(1−the average tumor weight of the treatment group/the average tumor weight of the model group)×100%.

[4] = tested on: transplanted tumor of human breast cancer cell MCF-7; experiment: MCF-7 transplanted tumor in nude mice
Procedure: as §6, §7, §8

[5] = tested on: transplanted tumor of human glioblastoma cell A172; conditions: for Tumor Volume (mm3) (d 1): d1
Procedure: as §6, with “temozolomide” for “cyclophosphamide”, “[…], […], […]” for “isovaleryl spiramycin I groups with doses of 25, 50 and 100 mg/kg, isovaleryl spiramycin II groups with doses of 25, 50 and 100 mg/kg, and isovaleryl spiramycin III groups with doses of 25, 50 and 100 mg/kg.”
as §7, §8

[6] = PC3, 25 mg/kg (low dose) i.g. 30 days
[7] = PC3, 50 mg/kg (medium dose) i.g. 30 days
[8] = PC3, 100 mg/kg (high dose) i.g. 30 days
[9] = MCF-7, 25 mg/kg (low dose) i.g. 30 days
[10] = MCF-7, 50 mg/kg (medium dose) i.g. 30 days
[11] = MCF-7, 100 mg/kg (high dose) i.g. 30 days
[12] = A172, high dose (100 mg/kg in method) i.g. 30 days
[13] = A172, low dose (25 mg/kg in method) i.g. 30 days
[14] = A172, medium dose (50 mg/kg in method) i.g. 30 days

IC50 [1]: 18.68 ± 0.58 µg/mL (≈ 20.1 µM)
IC50 [2]: 19.97 ± 1.93 µg/mL (≈ 21.5 µM)
mouse weight compared with the model group ([3]; mouse, in vivo): no significant changes
mouse weight compared with the model group ([4]; mouse, in vivo): no significant changes
mouse weight compared with the model group ([5]; mouse, in vivo): no significant changes
SMILES: CO[C@@H]1[C@@H](O[C@@H]2O[C@H](C)[C@@H](O[C@H]3C[C@@](C)(O)[C@@H](OC(=O)CC(C)C)[C@H](C)O3)[C@H](N(C)C)[C@H]2O)[C@@H](CC=O)C[C@@H](C)[C@@H](O[C@H]2CC[C@H](N(C)C)[C@@H](C)O2)/C=C/C=C/C[C@@H](C)OC(=O)C[C@H]1O [Isovaleryl spiramycin I, isovaleryl spiramycin I]
Inhibition Rate (tumor growth inhibition rate) [3, 6]: 33.87%
Relative Tumor Proliferation Rate (T/C) [3, 6]: 70.43%
Relative Tumor Volume (RTV) [3, 6]: 13.78 ± 3.15
Tumor Volume (d 1) [3, 6]: 127.59 ± 6.73 mm3
Tumor Volume (d 30) [3, 6]: 1758.15 ± 412.68 mm3
Tumor Weight [3, 6]: 1.24 ± 0.51 g
Inhibition Rate (tumor growth inhibition rate) [3, 7]: 51.33%
Relative Tumor Proliferation Rate (T/C) [3, 7]: 49.14%
Relative Tumor Volume (RTV) [3, 7]: 9.61 ± 3.15
Tumor Volume (d 1) [3, 7]: 186.59 ± 39.40 mm3
Tumor Volume (d 30) [3, 7]: 1706.14 ± 347.50 mm3
Tumor Weight [3, 7]: 0.91 ± 0.33 g
Inhibition Rate (tumor growth inhibition rate) [3, 8]: 71.01%
Relative Tumor Proliferation Rate (T/C) [3, 8]: 30.72%
Relative Tumor Volume (RTV) [3, 8]: 6.01 ± 1.78
Tumor Volume (d 1) [3, 8]: 175.94 ± 12.32 mm3
Tumor Volume (d 30) [3, 8]: 1041.69 ± 247.71 mm3
Tumor Weight [3, 8]: 0.55 ± 0.21 g
tumor volume and relative tumor volume compared with the model group ([3]; PC3, low, medium and high doses, P<0.05): significantly lower
Inhibition Rate (tumor growth inhibition rate) [4, 9]: 31.10%
Relative Tumor Proliferation Rate (T/C) [4, 9]: 71.92%
Relative Tumor Volume (RTV) [4, 9]: 12.59 ± 7.49
Tumor Volume (d 1) [4, 9]: 139.97 ± 26.58 mm3
Tumor Volume (d 30) [4, 9]: 1634.85 ± 789.61 mm3
Tumor Weight [4, 9]: 1.87 ± 0.25 g
Inhibition Rate (tumor growth inhibition rate) [4, 10]: 51.72%
Relative Tumor Proliferation Rate (T/C) [4, 10]: 49.05%
Relative Tumor Volume (RTV) [4, 10]: 8.58 ± 4.41
Tumor Volume (d 1) [4, 10]: 146.57 ± 32.97 mm3
Tumor Volume (d 30) [4, 10]: 1162.80 ± 394.71 mm3
Tumor Weight [4, 10]: 1.31 ± 0.50 g
Inhibition Rate (tumor growth inhibition rate) [4, 11]: 70.12%
Relative Tumor Proliferation Rate (T/C) [4, 11]: 30.80%
Relative Tumor Volume (RTV) [4, 11]: 5.39 ± 0.97
Tumor Volume (d 1) [4, 11]: 124.02 ± 15.14 mm3
Tumor Volume (d 30) [4, 11]: 656.95 ± 49.58 mm3
Tumor Weight [4, 11]: 0.81 ± 0.08 g
tumor volume and relative tumor volume compared with the model group ([4]; MCF-7, low, medium and high doses, P<0.05): significantly lower
Relative Tumor Proliferation Rate (T/C) [5, 12]: 25.16%
tumor growth inhibition rate [5, 12]: 68.79%
Relative Tumor Proliferation Rate (T/C) [5, 13]: 74.49%
tumor growth inhibition rate [5, 13]: 30.75%
tumor volume and relative tumor volume compared with the model group ([5]; A172, low, medium and high doses, P<0.05): significantly lower
Relative Tumor Proliferation Rate (T/C) [5, 14]: 43.43%
tumor growth inhibition rate [5, 14]: 44.26%
Inhibition Rate (%) ([5]; A172 nude mice, 12.5 mg/kg): 30.75%
Relative Tumor Proliferation Rate (T/C) ([5]; A172 nude mice, 12.5 mg/kg): 74.49%
Relative Tumor Volume (RTV) ([5]; A172 nude mice, 12.5 mg/kg): 12.69 ± 1.08
Tumor Weight ([5]; A172 nude mice, 12.5 mg/kg): 0.96 ± 0.08 g
Tumor Volume (mm3) (d 1) ([5]; A172 nude mice, 12.5 mg/kg): 120.36 ± 10.15 mm3
Tumor Volume (mm3) (d30) ([5]; A172 nude mice, 12.5 mg/kg): 1519.32 ± 71.53 mm3
Inhibition Rate (%) ([5]; A172 nude mice, 25 mg/kg): 44.26%
Relative Tumor Proliferation Rate (T/C) ([5]; A172 nude mice, 25 mg/kg): 43.43%
Relative Tumor Volume (RTV) ([5]; A172 nude mice, 25 mg/kg): 10.67 ± 1.08
Tumor Weight ([5]; A172 nude mice, 25 mg/kg): 0.77 ± 0.09 g
Tumor Volume (mm3) (d 1) ([5]; A172 nude mice, 25 mg/kg): 121.90 ± 10.10 mm3
Tumor Volume (mm3) (d30) ([5]; A172 nude mice, 25 mg/kg): 889.01 ± 195.61 mm3
Inhibition Rate (%) ([5]; A172 nude mice, 50 mg/kg): 68.79%
Relative Tumor Proliferation Rate (T/C) ([5]; A172 nude mice, 50 mg/kg): 25.16%
Relative Tumor Volume (RTV) ([5]; A172 nude mice, 50 mg/kg): 10.05 ± 0.71
Tumor Weight ([5]; A172 nude mice, 50 mg/kg): 0.43 ± 0.07 g
Tumor Volume (mm3) (d 1) ([5]; A172 nude mice, 50 mg/kg): 122.38 ± 6.44 mm3
Tumor Volume (mm3) (d30) ([5]; A172 nude mice, 50 mg/kg): 513.12 ± 89.49 mm3
Body Weight (g) (d1) ([5]; mouse, in vivo, 12.5 mg/kg): 21.06 ± 0.43 g
Body Weight (g) (d30) ([5]; mouse, in vivo, 12.5 mg/kg): 20.34 ± 0.17 g
Body Weight (g) (d1) ([5]; mouse, in vivo, 25 mg/kg): 20.98 ± 0.73 g
Body Weight (g) (d30) ([5]; mouse, in vivo, 25 mg/kg): 20.93 ± 0.54 g
Body Weight (g) (d1) ([5]; mouse, in vivo, 50 mg/kg): 21.00 ± 0.65 g
Body Weight (g) (d30) ([5]; mouse, in vivo, 50 mg/kg): 20.88 ± 0.58 g
